The source of these data is US8598159B2, “Therapeutic pyrazoloquinoline derivatives” (Dart Neuroscience (Cayman) Ltd., priority 2007, dated 2013).

Where only a bound is given, the exact number is not on record here.

For one assay, the system named is GABAA receptors. The assay can be described thus: Electrophysiology assay (two-electrode voltage clamp, Xenopus oocytes expressing GABAA receptors). Type of assay: cell-based. The note with it: positive (Pos) or negative (Neg) modulation of current at GABA EC20, screening concentration of 10 μM. The method, then:
The modulation of GABAA function is determined by changes in current as determined in an electrophysiology assay, as is detailed below.
mRNA was prepared from lyophilized plasmid pellets containing cDNA inserts encoding the specific GABAA receptor subunit. cDNAs encoding the α2, α3, and γ3 subunits were subcloned into pBluescript, SK^−. cDNAs encoding the a 1 and a 5 subunits were subcloned into prC while cDNA encoding the β2 subunit was subcloned into pcDNA1. The cDNA construct encoding the g 2s subunit is in the pGH19 expression construct. Overnight cultures of transformed DH5a bacterial cells were performed to grow sufficient quantities for maxiprep isolation of the plasmid cDNA. The resulting plasmid cDNA was linearized by digestion with an appropriate restriction enzyme that cleaves distal to the cDNA insert [XbaI (α1, β2), NotI (α3, γ2 s), SacII (α2), or ApaI (α5)]. Following digestion, plasmid cDNA was treated with proteinase K and extracted with phenol/chloroform/isoamyl alcohol, followed by ethanol precipitation. cDNA quality was assessed by agarose-gel electrophoresis (1.5% agarose gel). Samples were stored at −20° C. until use. In vitro transcription was performed with T7 RNA polymerase. mRNA was then stored at −80° C. until use. Plasmids were linearized with appropriate restriction enzymes before in vitro transcription using the Message Machine kit (Ambion, Austin, Tex.).
GABAA receptor expression in Xenopus oocytes: Following 45 min of 0.15% Tricaine anesthesia, an ovarian section containing the follicular oocytes was removed from the frog through a lateral abdominal incision. Oocytes were immediately placed in a calcium-free solution (NaCl 96 mM, MgCl2 1 mM, KCl 2 mM, Hepes 50 mM, pyruvate 2.5 mM, gentamycin 100 μg/mL, penicillin-streptomycin 50 U/mL, pH 7.4). Following 1.5-2 hour incubation in 0.2% collagenase (type II, Sigma Chemical Co., St. Louis, Mo.) at room temperature, individual Dumont stage V and VI oocytes were transferred to an incubator and maintained overnight in Barth's solution (NaCl 84 mM, NaHCO3 2.4 mM, MgSO4 0.82 mM, KCl 1 mM, Ca(NO3)2 0.33 mM, CaCl2 0.41 mM, Tris/HCl 7.5 mM, pyruvate 2.5 mM, gentamycin 50 μg/mL, penicillin-streptomycin, 100 units/mL, pH 7.4) at 18-20° C. and used for experiments 1-5 days post-injection. Oocytes were injected solution using an electronic microinjector (Drummond, Broomall, Pa.) with 50 nL of RNA containing 0.3-0.5 ng of each subunit RNA in a 1:1:2 ratio. The injected oocytes were used for experiments after 1-5 days of incubation in Barth's solution at 18-20° C.
Measurements of ion currents from oocytes expressing GABAA receptors were performed using a Warner two-electrode voltage-clamp amplifier (Warner Instruments, Inc., Foster City, Calif.) (Park-Chung, M. A., et al. (1999) Brain Res. 830: 72-87 incorporated herein in its entirety). Microelectrodes were fabricated from borosilicate glass capillaries with a programmed pipette puller (Sutter Instrument Co., CA). Microelectrode resistance was 1-3 MΩ when filled with 3 M KCl. The oocyte recording chamber was continuously perfused with ND-96 solution. Oocytes were clamped at a holding potential of −70 mV during data acquisition. The membrane current was filtered at 10 Hz and sampled at 100 Hz. Compounds were applied by a gravity-driven external perfusion system. The working volume of the recording chamber was […] and the rate of the perfusion was approximately […]. Compound application was 20-25 sec followed by a minimum of 150 sec wash. Data acquisition and external perfusion was computer controlled by custom-developed software. All experiments were performed at room temperature (22-24° C.). Dose-response data from each oocyte were fitted to the Hill equation by non-linear regression using the equation: IGABA=Emax/(1+(EC50/c)nH)
Emax is the maximum response, EC50 is the concentration producing 50% of the maximal response, nH is the Hill coefficient and c is the concentration of agonist. […]

Assay [1] addresses GABAA central benzodiazepine receptor. In words: Benzodiazepine binding assay ((3H)-flunitrazepam displacement). The note with it: read-out: BZ binding assay (IC50); rat whole brain (except cerebellum), 1 nM (3H)-flunitrazepam, 60 minutes at 25° C.; 3-concentration dose response curve.

As a reminder, the IC50 is the point on the concentration scale where inhibition reaches its midpoint. As for `O=c1c2c[nH]c3ccc(N4CCOCC4)cc3c-2nn1-c1ccccc1F` [19e, 2-(2-Fluorophenyl)-8-morpholin-4-yl-2,5-dihydro-pyrazolo[4,3-c]quinolin-3-one], in the assay on GABAA receptors, the “EP Result” value was “Neg”. Also, the IC50 in assay [1] is under 1 µM.
On to `COCCN1CCN(c2ccc3[nH]cc4c(=O)n(-c5ccccc5)nc-4c3c2)CC1` [19f, 8-[4-(2-Methoxyethyl)-piperazin-1-yl]-2-phenyl-2,5-dihydro-pyrazolo[4,3-c]quinolin-3-one], for which the “EP Result” value in the assay with GABAA receptors is given as “Pos”. The IC50 in assay [1] is under 1 µM.
Taken in the same sequence, the figures for `O=c1c2c[nH]c3ccc(N4CCCCC4)cc3c-2nn1-c1ccccc1` [19g, 2-Phenyl-8-piperidin-1-yl-2,5-dihydro-pyrazolo[4,3-c]quinolin-3-one] were “Pos” and under 1 µM.
The corresponding values for `COc1ccc(-n2nc3c4cc(N5CCN(C(C)C)CC5)ccc4[nH]cc-3c2=O)cc1` [19i, 8-(4-Isopropylpiperazin-1-yl)-2-(4-methoxyphenyl)-2,5-dihydro-pyrazolo[4,3-c]quinolin-3-one] are “Pos” and under 1 µM.
Taken in the same sequence, the figures for `O=c1c2c[nH]c3cc(Cl)c(N4CCNCC4)cc3c-2nn1-c1ccccc1` [19j, 7-Chloro-2-phenyl-8-piperazin-1-yl-2,5-dihydro-pyrazolo[4,3-c]quinolin-3-one] were “Neg” and under 1 µM.
Take `O=c1c2c[nH]c3cc(Cl)c(N4CCOCC4)cc3c-2nn1-c1ccccc1` [19k, 7-Chloro-8-morpholin-4-yl-2-phenyl-2,5-dihydro-pyrazolo[4,3-c]quinolin-3-one]: the “EP Result” value in the assay with GABAA receptors is recorded as “Pos”. The IC50 in assay [1] is under 1 µM.
`O=c1c2c[nH]c3cc(N4CCOCC4)c(F)cc3c-2nn1-c1ccccc1` [28b, 8-Fluoro-7-morpholin-4-yl-2-phenyl-2,5-dihydro-pyrazolo[4,3-c]quinolin-3-one]: the “EP Result” value in the assay with GABAA receptors is reported as “Pos”. The IC50 in assay [1] was under 1 µM.
The corresponding values for `CC(C)N1CCN(c2cc3[nH]cc4c(=O)n(-c5ccccc5)nc-4c3cc2F)CC1` [28c, 8-Fluoro-7-(4-isopropylpiperazin-1-yl)-2-phenyl-2,5-dihydro-pyrazolo [4,3-c]quinolin-3-one] are “Pos” and under 1 µM.
As to `O=c1c2c[nH]c3cc(N4CCOCC4)c(F)cc3c-2nn1-c1ccccn1` [28d, 8-Fluoro-7-(morpholin-4-yl)-2-pyridin-2-yl-2,5-dihydro-pyrazolo[4,3-c]quinolin-3-one], in the assay on GABAA receptors, the “EP Result” value is “Neg”. The IC50 in assay [1] is under 1 µM.
For `CC1CC(C)CN(c2cc3[nH]cc4c(=O)n(-c5ccccc5)nc-4c3cc2F)C1` (stereo not shown) [28e, 7-(3,5-Dimethylpiperidin-1-yl)-8-fluoro-2-phenyl-2,5-dihydro-pyrazolo[4,3-c]quinolin-3-one], in the assay with GABAA receptors, the “EP Result” value is “Pos”. The IC50 in assay [1] is under 1 µM.
The corresponding values for `CN1CCN(c2cc3[nH]cc4c(=O)n(-c5ccccn5)nc-4c3cc2F)CC1` [28f, 8-Fluoro-7-(4-methylpiperazin-1-yl)-2-pyridin-2-yl-2,5-dihydro-pyrazolo[4,3-c]quinolin-3-one] are “Pos” and under 1 µM.
Take `CC1CN(c2cc3[nH]cc4c(=O)n(-c5ccccc5)nc-4c3cc2F)CC(C)O1` (stereo not shown) [28g, 7-(2,6-Dimethylmorpholin-4-yl)-8-fluoro-2-phenyl-2,5-dihydro-pyrazolo[4,3-c]quinolin-3-one]: the “EP Result” value with GABAA receptors is “Pos”. Further, in assay [1], the half-maximal inhibitory concentration (IC50) is under 1 µM.
The corresponding values for `O=c1c2c[nH]c3cc(N4CCOCC4)ccc3c-2nn1-c1ccccc1` [28h, 7-Morpholin-4-yl-2-phenyl-2,5-dihydro-pyrazolo[4,3-c]quinolin-3-one] are “Pos” and under 1 µM.
The corresponding values for `O=c1c2c[nH]c3cc(N4CCNCC4)c(F)cc3c-2nn1-c1ccsc1` [28p, 8-fluoro-7-(piperazin-1-yl)-2-(thiophen-3-yl)-2,5-dihydro-pyrazolo[4,3-c]quinolin-3-one] are “Neg” and under 1 µM.
